This note sets out measurements from ChEMBL document CHEMBL1129522, “Inhibitors of acyl-CoA:cholesterol O-acyltransferase. 17. Structure-activity relationships of several series of compounds derived from N-chlorosulfonyl isocyanate” (J Med Chem, 1996).

The IC50 is the point on the concentration scale where inhibition reaches its midpoint. Low values mean greater potency in that assay, high ones weaker potency in that assay.

For experiment [1], the target named is T1, Sterol O-acyltransferase 1 (Rattus norvegicus) (UniProt O70536).
T1 sequence (whole entry): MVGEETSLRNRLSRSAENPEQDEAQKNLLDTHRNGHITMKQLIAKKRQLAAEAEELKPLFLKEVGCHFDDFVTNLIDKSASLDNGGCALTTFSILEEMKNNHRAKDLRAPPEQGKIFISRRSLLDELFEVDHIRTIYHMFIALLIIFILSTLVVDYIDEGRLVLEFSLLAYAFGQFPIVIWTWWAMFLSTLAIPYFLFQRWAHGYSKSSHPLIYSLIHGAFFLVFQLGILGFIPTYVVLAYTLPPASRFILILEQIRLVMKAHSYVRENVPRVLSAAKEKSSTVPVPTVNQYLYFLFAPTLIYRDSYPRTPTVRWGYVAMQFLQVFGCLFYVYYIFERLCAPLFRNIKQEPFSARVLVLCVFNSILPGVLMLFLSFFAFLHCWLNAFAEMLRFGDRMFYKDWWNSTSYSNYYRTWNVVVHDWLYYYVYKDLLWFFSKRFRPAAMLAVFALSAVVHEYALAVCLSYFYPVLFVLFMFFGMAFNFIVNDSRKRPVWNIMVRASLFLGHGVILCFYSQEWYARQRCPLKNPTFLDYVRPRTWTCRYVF
Put plainly: Chronic in vivo activity was measured by the concentration of high density lipoproteins (HDL) in cholesterol fed rats. The format is functional, organism-based.

The target in experiment [2] is T1, Sterol O-acyltransferase 1 (Rattus norvegicus). Kind of experiment: Chronic in vivo activity was measured by the total cholesterol concentration levels in cholesterol fed rats. The experiment is classed as functional, organism-based.
Experiment [3] has the same target. Put plainly: Acute in vivo activity was measured by the total plasma cholesterol concentration levels(TC) at dose 3 mg/kg. The experiment is classed as functional, organism-based. Also on record: dose 3 mg/kg.
Experiment [4] addresses T2, Sterol O-acyltransferase 1 (Rattus norvegicus, UniProt O70536).
T2 sequence (O70536 whole entry): T1 sequence (whole entry)
Put plainly: In vitro inhibitory activity against acyl coenzyme A:cholesterol acyltransferase 1 in microsomes of rat liver.

A further experiment has as its system Rattus norvegicus. Kind of experiment: Acute in vivo activity measured by total plasma cholesterol concentration levels (TC) at 30 mg/kg dose. The format is functional.

Values joined by “and” are separate entries in the source; they are usually repeats but may differ in a detail not shown here. Equal values may be shown once.

In turn, `CC(C)c1cccc(C(C)C)c1NC(=O)NS(=O)(=O)N(c1ccccc1)c1ccccc1` showed a Delta HDL in experiment [1] of 170%. Moreover, the Delta TC in experiment [2] was -36%; in experiment [3], -27%. 16 µM corresponded to half-maximal inhibition in experiment [4] (IC50).
Take `CCCCCCCCN(C)S(=O)(=O)NC(=O)Nc1c(C(C)C)cccc1C(C)C`: the Delta HDL in experiment [1] was 123%. The values for the Delta TC in experiment [2] and in experiment [3] were -64% and -57%, respectively. This compound also gave an IC50 in experiment [4] of 3.8 µM.
With `CC(C)c1cccc(C(C)C)c1OS(=O)(=O)NC(=O)Oc1c(C(C)(C)C)cc(C(C)(C)C)cc1C(C)(C)C`, in experiment [1], the Delta HDL was determined as 108%. The “Delta TC” value with Rattus norvegicus was -76%; in experiment [2], -78%; in experiment [3], -69%. The compound also returned a 50% inhibitory concentration (IC50) in experiment [4] of 26 µM.
With `CCCCCCCCN(CCCCCCCC)S(=O)(=O)NC(=O)Oc1c(C(C)C)cccc1C(C)C`, the Delta HDL in experiment [1] turned out to be 156%. Besides, the Delta TC in experiment [2] was -80%; in experiment [3], -67%. For the same compound, in experiment [4], half-maximal inhibition (IC50) was put at 58 µM.
For the compound `CC(C)c1cc(F)cc(C(C)C)c1OC(=O)NS(=O)(=O)Oc1c(C(C)C)cccc1C(C)C`, the Delta HDL in experiment [1] is 143%. For the same compound, the “Delta TC” value in the experiment with Rattus norvegicus was -72%; in experiment [2] it was -52%. Also, the IC50 in experiment [4] is more than 50 µM.
As to `CC(C)CN(CC(C)C)S(=O)(=O)NC(=O)Nc1c(C(C)C)cccc1C(C)C`, the Delta HDL in experiment [1] came to 122%. For the same compound, the Delta TC in experiment [2] was -62%; in experiment [3] it was -61%. This compound registered an IC50 in experiment [4] of 0.42 µM.
Consider `CC(C)c1cccc(C(C)C)c1OC(=O)NS(=O)(=O)Oc1c(C(C)C)cccc1C(C)C`, for which the Delta HDL in experiment [1] was 233% and 345%. Besides, the Delta TC is -64% and -68% in experiment [2]; -59% and -54% in experiment [3].
Compound `CCCCCCCCN(C)S(=O)(=O)NC(=O)Oc1c(C(C)C)cccc1C(C)C` gave a Delta HDL in experiment [1] of 88%. Besides, the Delta TC in experiment [2] was -64%; in experiment [3] it was -57%. In experiment [4], this compound returned an IC50 of 22 µM.
The matching figures for `CC(C)c1cccc(C(C)C)c1NC(=O)NS(=O)(=O)N(CC1CCCO1)CC1CCCO1` (stereo not given): 123%, -56%, -45% and 1.7 µM.
The matching figures for `CC(C)CCN(CCC(C)C)S(=O)(=O)NC(=O)Nc1c(C(C)C)cccc1C(C)C`: 133%, -68%, -66% and 0.42 µM.
Taken in the same sequence, the figures for `CC(C)c1cccc(C(C)C)c1OC(=O)NS(=O)(=O)N(C(C)C)C1CCCCC1` were 188%, -71%, -49% and 5.1 µM.
In turn, `CC(C)c1cccc(C(C)C)c1NC(=O)NS(=O)(=O)N(C)CCc1ccccc1` showed a Delta HDL in experiment [1] of 43%. In addition, the values for the Delta TC in experiment [2] and in experiment [3] were -45% and -38%, respectively. This compound also came in with an IC50 in experiment [4] of 1.7 µM.
Regarding `CCCCCCCCCCCCCCN(C)S(=O)(=O)NC(=O)Nc1c(C(C)C)cccc1C(C)C`, in experiment [1], the Delta HDL was 19%. Further, the Delta TC is -51% in experiment [2] and -65% in experiment [3]. The IC50 in experiment [4] is 0.33 µM.
For the compound `CCCCN(CCCC)S(=O)(=O)NC(=O)Oc1c(C(C)C)cccc1C(C)C`, the Delta HDL in experiment [1] was 109% and 113%. The Delta TC in experiment [2] was -69% and -72%; in experiment [3] it was -64% and -47%.
In experiment [1], `CC(C)c1cccc(C(C)C)c1OS(=O)(=O)NC(=O)Oc1c(-c2ccccc2)cccc1-c1ccccc1` registered a Delta HDL of 21%. For the same compound, the figures for the “Delta TC” value (with Rattus norvegicus; in experiment [2]) were -46% and -38%, respectively. This compound also showed an IC50 in experiment [4] of 12 µM.
For the compound `CCCCCCCCCCCCOS(=O)(=O)NC(=O)Nc1c(C(C)C)cccc1C(C)C`, the Delta TC was -55% and -52% in experiment [2]; -34% and -53% in experiment [3].
`CCC(C)N(C(C)CC)S(=O)(=O)NC(=O)Nc1c(C(C)C)cccc1C(C)C` (stereo not given) returned a Delta HDL in experiment [1] of 86%. Further, the Delta TC was -62% in experiment [2] and -65% in experiment [3]. The compound also gave an IC50 in experiment [4] of 0.1 µM.
Taken in the same sequence, the figures for `CC(C)c1cccc(C(C)C)c1NC(=O)NS(=O)(=O)N(C1CCCCC1)C1CCCCC1` were 92%, -35%, -60% and 0.23 µM.
The matching figures for `COc1cc(C(C)(C)C)c(OC(=O)NS(=O)(=O)Nc2c(C(C)C)cccc2C(C)C)c(C(C)(C)C)c1`: 86%, -47%, -29% and 15 µM.
Taken in the same sequence, the figures for `CC(C)c1cccc(C(C)C)c1NC(=O)NS(=O)(=O)N(C(C)C)C1CCCCC1` were 94%, -63%, -60% and 0.36 µM.
Compound `CC(C)c1cccc(C(C)C)c1OC(=O)NS(=O)(=O)N(C(C)C)C(C)C` had a Delta HDL in experiment [1] of 82%. For the same compound, the Delta TC in experiment [2] was -59%; in experiment [3], -65%. This compound gave an IC50 in experiment [4] of 15 µM.
As to `CC(C)c1cccc(C(C)C)c1OS(=O)(=O)NC(=O)OC1[C@@H](C(C)C)CCC[C@H]1C(C)C` (stereo not given in full), the “Delta TC” value with Rattus norvegicus is -70%; in experiment [3], -29%. The same compound gave an IC50 in experiment [4] of 3.6 µM.
Consider `CCCCCCN(CCCCCC)S(=O)(=O)NC(=O)Oc1c(C(C)C)cccc1C(C)C`, for which, in experiment [1], the Delta HDL came out at 144%. In addition, the Delta TC was -75% in experiment [2] and -74% in experiment [3]. In experiment [4], this compound registered an IC50 of 4.2 µM.
Turning to `CCCCCCC(C)OS(=O)(=O)NC(=O)Nc1c(C(C)C)cccc1C(C)C` (stereo not given), the “Delta TC” value in the experiment with Rattus norvegicus is -51%; in experiment [3], 10%. In experiment [4], this compound registered an IC50 of 35 µM.
`CCCCCCCCCCCCCCCCCCOS(=O)(=O)NC(=O)Nc1c(C(C)C)cccc1C(C)C`: the Delta HDL in experiment [1] stood at 30%. Further, the Delta TC in experiment [2] was -38%; in experiment [3], -5%. In addition, 14 µM corresponded to half-maximal inhibition in experiment [4] (IC50).
In the case of `Cc1cc(C(C)(C)C)c(OC(=O)NS(=O)(=O)Oc2ccccc2)c(C(C)(C)C)c1`, the “Delta TC” value with Rattus norvegicus is -65%; in experiment [3] it was -15%. The compound further showed an IC50 in experiment [4] of 90 µM.
Compound `CCCCCN(CCCCC)S(=O)(=O)NC(=O)Oc1c(C(C)C)cccc1C(C)C` gave a Delta HDL in experiment [1] of 166%. For the same compound, the results for the Delta TC in experiment [2] and in experiment [3] were -73% and -66%, respectively. Also, the IC50 in experiment [4] was 1.3 µM.
The matching figures for `CC(C)c1cccc(C(C)C)c1OC(=O)NS(=O)(=O)N(c1ccccc1)c1ccccc1`: 320%, -37%, -46% and 58 µM.
Taken in the same sequence, the figures for `CCCCCN(CCCCC)S(=O)(=O)NC(=O)Nc1c(C(C)C)cccc1C(C)C` were 193%, -67%, -68% and 0.42 µM.
Taken in the same sequence, the figures for `CCCCCCN(CCCCCC)S(=O)(=O)NC(=O)Nc1c(C(C)C)cccc1C(C)C` were 207%, -69%, -63% and 0.51 µM.
As to `COc1cc(C(C)(C)C)c(OC(=O)NS(=O)(=O)Oc2c(C(C)C)cccc2C(C)C)c(C(C)(C)C)c1`, the Delta TC in experiment [2] was -62% and -76%; in experiment [3], -42% and -58%.
In the case of `CC(C)c1cccc(C(C)C)c1OC(=O)NS(=O)(=O)N(Cc1ccccc1)C(C)C`, the Delta HDL in experiment [1] amounted to 114%. The Delta TC was -69% in experiment [2] and -59% in experiment [3]. This compound showed an IC50 in experiment [4] of 12 µM.
